The results in this text go back to US7691898B2 (Kotobuki Pharmaceutical Co., Ltd., priority 2004, dated 2010).

One series has as its system NaH2PO4 loaded mice. The experiment in a line: Inhibitory effect on the elevation of serum phosphate levels in NaH2PO4 loaded mice. It is filed as in vivo. The note with it: Mus musculus; male ddY mice, oral, compound 0.5 hours before oral NaH2PO4 load; serum phosphate AUC up to 4 hours. As for the experimental part: EVALUATION OF INHIBITORY EFFECT ON THE ELEVATION OF SERUM PHOSPHATE LEVELS 1N NaH2PO4 LOADED MICE Male ddY mice, aged 6-7 weeks, were fasted overnight and used as 6 mice/group. The compounds suspended in 0.5% methylcellulose were administered orally at a dose of 100 or 300 mg/10 mL/kg. After 0.5 hours, 50 mg/300 uL/mouse of NaH2PO4 solution was administered orally. Blood samples were taken from retro-orbital venousplexus of the mice before administration of the compounds and 0.5, 1, 2 and 4 hours after the NaH2PO4 administration, and serum phosphate concentration was measured using phospha C-test Wako kit (Wako pure chemicals Co. Ctd.). The area under the serum phosphate concentration-time curve (AUC) up to 4 hours after administration of NaH2PO4 was calculated and the inhibitory effect of serum phosphate levels was evaluated.

The test system of series [1] is Human alkaline phosphatase. The experiment in a line: Stability test against human alkaline phosphatase. It is filed as in vitro ADME. Particulars: for amount of compound (HPLC) after incubation with human alkaline phosphatase: 2 U/mL enzyme, 0.1 M carbonate buffer, 37° C. As for the experimental part:
Compound 42 or 2′-PP was dissolved in dimethyl sulfoxide and the concentration was adjusted to 1×10^−2 M. […] The amounts of each compound were measured by the HPLC method (HPLC condition, column: Inertsil ODS-2, eluent: 10 mM phosphate buffer/CH3CN=8/2, wavelength: 230 nm, flow rate: 1 mL/min).

`O=C(c1ccc(O)c(Cc2ccc(Oc3ccccc3)cc2)c1)P(=O)(O)O` [Compound 49, [4-Hydroxy-3-(4-phenoxybenzyl)benzoyl]phosphonic acid]: the ED30 in the series with NaH2PO4 loaded mice stood at 17.8 mg/kg. With `O=C(CCc1ccc(O)cc1)c1c(O)cc(O)cc1OP(=O)(O)O` [reference compound], the amount of compound (HPLC) after incubation with human alkaline phosphatase was 100% in series [1] (Time 0 hr); 31.4% in series [1] (Time 0.25 hr); 21.4% in series [1] (Time 0.5 hr); 16.3% in series [1] (Time 1 hr); 1.2% in series [1] (Time 2 hr). Compound `CCOc1ccc(Cc2cc(CP(=O)(O)O)ccc2O)cc1` [Compound 20, [3-(4-Ethoxybenzyl)-4-hydroxybenzyl]phosphonic acid] yielded an ED30 with NaH2PO4 loaded mice of 244 mg/kg.

For `CCOc1ccc(Cc2cc(C(=O)P(=O)(O)O)ccc2OCCO)cc1` [Compound 57, [3-(4-Ethoxybenzyl)-4-(2-hydroxyethoxy)benzoyl]phosphonic acid], the ED30 in the series with NaH2PO4 loaded mice came out at 30.9 mg/kg. The same measure, in the same setting: in the case of `CSc1ccc(Cc2cc(C(=O)P(=O)(O)O)ccc2OCCO)cc1` [Compound 60, [4-(2-Hydroxyethoxy)-3-(4-methylthiobenzyl)benzoyl]phosphonic acid] it was 12.1 mg/kg; in that of `O=C(c1ccc(Cc2ccc(Cl)cc2)s1)P(=O)(O)O` [Compound 75, [5-(4-Chlorobenzyl)thiophen-2-carbonyl]phosphonic acid], 25.6 mg/kg; in that of `CCSc1ccc(Cc2ccc(C(=O)P(=O)(O)O)s2)cc1` [Compound 76, [5-(4-Ethylthiobenzyl)thiophen-2-carbonyl]phosphonic acid], 2 mg/kg. `CSc1ccc(Cc2cc(C(=O)P(=O)(O)O)ccc2O)cc1` [Compound 42, [4-Hydroxy-3-(4-methylthiobenzyl)benzoyl]phosphonic acid]: the amount of compound (HPLC) after incubation with human alkaline phosphatase in series [1] (Time 0 hr) was determined as 100%; in series [1] (Time 0.25 hr), 96.3%; in series [1] (Time 0.5 hr), 96%; in series [1] (Time 1 hr) it was 95.8%; in series [1] (Time 2 hr) it was 95.5%. Also, the “stability against human alkaline phosphatase (in words)” value in series [1] (conclusion from Table 1) is “stable”. Moreover, the ED30 in the series with NaH2PO4 loaded mice came to 33.3 mg/kg. For the compound `CC(C)Oc1ccc(Cc2cc(C(=O)P(=O)(O)O)ccc2O)cc1` [Compound 46, [4-Hydroxy-3-(4-i-propoxybenzyl)benzoyl]phosphonic acid], in the series with NaH2PO4 loaded mice, the ED30 was 16.3 mg/kg.

Turning to `CCOc1ccc(Cc2ccc(CP(=O)(O)O)s2)cc1` [Compound 65, [5-(4-Ethoxybenzyl)thiophen-2-ylmethyl]phosphonic acid], the ED30 in the series on NaH2PO4 loaded mice amounted to 256 mg/kg. Same read-out and setting: next, `CCOc1ccc(Cc2ccc(P(=O)(O)O)s2)cc1` [Compound 64, 5-(4-Ethoxybenzyl)-2-thiophenephosphonic acid]: 165 mg/kg; `O=C(c1ccc(O)c(Cc2cc3ccccc3s2)c1)P(=O)(O)O` [Compound 54, [3-(Benzo[b]thiophen-2-ylmethyl)-4-hydroxybenzoyl]phosphonic acid]: 13.9 mg/kg. Still for that read-out and setting: next, `CCCCCCCCCCCCCOc1ccc(Cc2ccc(C(=O)P(=O)(O)O)s2)cc1` [Compound 83, [5-(4-n-Tridecanyloxybenzyl)thiophen-2-carbonyl]phosphonic acid]: 10.7 mg/kg; `CCOc1ccc(Cc2cc(C(=O)P(=O)(O)O)ccc2O)cc1` [Compound 38, [3-(4-Ethoxybenzyl)-4-hydroxybenzoyl]phosphonic acid]: 44.5 mg/kg; `CCOc1ccc(Cc2ccc(C(=O)P(=O)(O)O)s2)cc1` [Compound 70, [5-(4-Ethoxybenzyl)thiophen-2-carbonyl]phosphonic acid]: 20.3 mg/kg. On the same count and under the same terms, next, `CCCOc1ccc(Cc2cc(C(=O)P(=O)(O)O)ccc2O)cc1` [Compound 45, [4-Hydroxy-3-(4-n-propoxybenzyl)benzoyl]phosphonic acid]: 20.1 mg/kg; `CSc1ccc(Cc2ccc(C(=O)P(=O)(O)O)s2)cc1` [Compound 73, [5-(4-Methylthiobenzyl)thiophen-2-carbonyl]phosphonic acid]: 4.5 mg/kg.
